Earlier results in patent US8269040B2, “Derivatives of venlafaxine and methods of preparing and using the same” (Wyeth LLC, priority 1999, dated 2012).

Tests used:
dopamine uptake = dopamine uptake (Rattus norvegicus, UniProt P23977); details: in vitro; versus parent compound venlafaxine
norepinephrine uptake = details: in vitro; versus parent compound venlafaxine
serotonin uptake = details: versus the other enantiomer
[1] = test system: norepinephrine synaptosomal uptake; details: versus the other enantiomer

Chain of dopamine uptake (P23977 whole entry): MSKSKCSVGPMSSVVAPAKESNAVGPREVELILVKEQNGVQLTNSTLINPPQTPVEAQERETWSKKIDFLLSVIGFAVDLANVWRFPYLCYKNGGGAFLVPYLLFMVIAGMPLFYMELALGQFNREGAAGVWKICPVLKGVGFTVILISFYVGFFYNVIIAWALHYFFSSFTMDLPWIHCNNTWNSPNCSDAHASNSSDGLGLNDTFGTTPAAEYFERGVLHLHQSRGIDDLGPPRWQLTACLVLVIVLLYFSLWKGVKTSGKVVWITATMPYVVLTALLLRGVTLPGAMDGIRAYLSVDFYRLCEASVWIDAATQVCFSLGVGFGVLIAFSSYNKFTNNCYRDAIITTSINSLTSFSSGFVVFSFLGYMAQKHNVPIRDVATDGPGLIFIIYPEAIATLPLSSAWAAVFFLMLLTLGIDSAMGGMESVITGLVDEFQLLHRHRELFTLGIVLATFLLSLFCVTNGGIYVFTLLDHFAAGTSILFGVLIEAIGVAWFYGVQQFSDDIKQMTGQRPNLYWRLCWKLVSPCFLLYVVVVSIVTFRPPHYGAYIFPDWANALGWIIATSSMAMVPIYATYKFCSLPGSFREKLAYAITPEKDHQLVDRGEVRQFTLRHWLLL

## CN(C)CC(c1ccc(O)cc1)C1(O)CCCCC1 (racemic) [O-desmethylvenlafaxine, (±)-1-[2-(dimethylamino)-1-(4-phenol)ethyl]cyclohexanol]
Dopamine uptake
  potency as inhibitor of dopamine uptake compared with venlafaxine: more potent inhibitor
Compared with venlafaxine
  half-life relative to that of venlafaxine: approximately 2.5 times
In vivo
  half-life (t1/2): about 10 hours
Norepinephrine uptake
  potency as inhibitor of norepinephrine uptake compared with venlafaxine: more potent inhibitor

## COc1ccc(C(CN(C)C)C2(O)CCCCC2)cc1 (single isomer, unassigned; (+)) [(+) enantiomer]
Serotonin uptake
  selectivity in inhibiting serotonin uptake, comparison of enantiomers: more selective

## COc1ccc(C(CN(C)C)C2(O)CCCCC2)cc1 (single isomer, unassigned; (-)) [(−) enantiomer]
[1]
  potency as inhibitor of norepinephrine synaptosomal uptake, comparison of enantiomers: more potent inhibitor
